Test results: patent US20250059198A1, “BRM DEGRADING COMPOUNDS AND ASSOCIATED METHODS OF USE” (Arvinas Operations, Inc., priority 2021, published 2025)

Molecular target: T1, BRM (Homo sapiens, UniProt P51531)
T1 construct: Western Blot Screen of BRM Degradation in SW1573 Cells; endogenous in cells; host or cells: SW1573 cells
Test: BRM degradation (Dmax and DC50) in SW1573 cells, Western blot screen / In-Cell Western screen
Assay type: cell-based
Settings: overnight (18-20 hours) treatment; for Dmax: read-out: Dmax (%)** (% degraded)
Protocol: (§1) To assess BRM degradation (Dmax and DC50) cells were seeded at 8000/well in 96-well black/clear-bottom plates in 180 μL DMEM growth media (containing 1% pen-strep, 1% HEPES and 10% FBS) per well. Plates were incubated overnight to allow adhesion. The next morning cells were treated by adding 20 μL of 10× target compound concentration (1% DMSO) to appropriate wells and returned to incubator for overnight (18-20 hours). The final DMSO concentration was 0.1%.
For lysing, adherent cells were washed once with 100 μL of DPBS. Cells were lysed in 40 μL of 1×RIPA+HALT protease inhibitor on ice for 10 minutes and frozen until use at −80° C. Thawed lysates were cleaned by filtration in 1.2 µm filter plates, or alternatively, were spun clean at 2300 g at 4° C. for 30 minutes.
For blotting, for each Western sample 30 μL of lysate was added to 10 μL of 4× LDS sample buffer, then denatured at 95° C. for 5 minutes in the thermal cycler and placed on ice. Samples were loaded on 4-15% Tris/Glycine gels and run for 25 minutes at 250 constant volts in 1× Tris/Glycine buffer with 4 μL of ladder and 12 μL of each sample loaded for each blot. Protein was transferred from gels to NC with BioRad Turbo dry-transfer unit with the Turbo/midi default program. All blots were rinsed with ddH2O and blocked for 1 hour at room temperature in 5% BSA in TBST (0.1%) on rocker. Blots were exposed to primary antibody in 5% BSA in TBST (0.1%) overnight at 4° C. on rocker (1:1000 for BRM (Cell Signaling Tech. cat #11966) and 1:2000 for alpha-tubulin (Cell Signaling Tech. cat #3873), a control protein. Blot was washed with TBST (0.1%) three times for 5 minutes on rocker at room temperature. Secondary antibody was added, and blots were incubated on a room temperature rocker for 1 hour with 1:18,000 anti-rabbit-HRP and/or anti-mouse-HRP in 5% BSA in TBST (0.1%). Blots were washed three times in TBST (0.1%) for 5 minutes at room temperature on the rocker. Signal was developed with Femto Maximum Sensitivity substrate for 4 minutes and blots read on ChemiDoc™.
as §1, with “DC50),” for “DC50)”, “10×” for “10× target”, “compound” for “compound concentration”
For processing, the plates were removed from incubator, the media was removed, and immediately 200 μL of cold (4° C.) DPBS was added to all wells. DPBS was then removed, and 50 μL of 4% paraformaldehyde (PFA) in DPBS (4° C.) was added to all wells, and the plates were incubated at room temperature for 20 minutes. PFA was then removed, and 200 μL of TBS-T containing 0.5% Triton X-100 was added to all wells, and the plates were incubated at room temperature for 30 minutes. TBS-T containing 0.5% Triton X-100 was then removed, and 50 μL of Li-Cor blocking solution was added, and the plates were incubated at room temperature for a minimum of one hour. The blocking solution was removed, and 50 μL of Li-Cor blocking solution containing primary antibody cocktail was added (1:1000 for BRM (Cell Signaling Tech. cat #11966) and 1:2000 for alpha-tubulin (Sigma cat #T6074), a control protein. Plates were then placed in cold room until the next day.
The next day plates were washed three times with TBS-T, 200 μL per well. Fifty […] of secondary antibody cocktail in LI-COR blocking solution (anti-rabbit_800 nm and anti-mouse_680 nm) was added to all wells (diluted 1:5000). The plates were incubated at room temperature for at least one hour while protected from light. The plates were washed twice with TBS-T, 200 μL per well.
To read each plate TBS-T was removed, and each plate was inverted tapped on a paper towel. […]

T1 sequence (P51531 whole entry): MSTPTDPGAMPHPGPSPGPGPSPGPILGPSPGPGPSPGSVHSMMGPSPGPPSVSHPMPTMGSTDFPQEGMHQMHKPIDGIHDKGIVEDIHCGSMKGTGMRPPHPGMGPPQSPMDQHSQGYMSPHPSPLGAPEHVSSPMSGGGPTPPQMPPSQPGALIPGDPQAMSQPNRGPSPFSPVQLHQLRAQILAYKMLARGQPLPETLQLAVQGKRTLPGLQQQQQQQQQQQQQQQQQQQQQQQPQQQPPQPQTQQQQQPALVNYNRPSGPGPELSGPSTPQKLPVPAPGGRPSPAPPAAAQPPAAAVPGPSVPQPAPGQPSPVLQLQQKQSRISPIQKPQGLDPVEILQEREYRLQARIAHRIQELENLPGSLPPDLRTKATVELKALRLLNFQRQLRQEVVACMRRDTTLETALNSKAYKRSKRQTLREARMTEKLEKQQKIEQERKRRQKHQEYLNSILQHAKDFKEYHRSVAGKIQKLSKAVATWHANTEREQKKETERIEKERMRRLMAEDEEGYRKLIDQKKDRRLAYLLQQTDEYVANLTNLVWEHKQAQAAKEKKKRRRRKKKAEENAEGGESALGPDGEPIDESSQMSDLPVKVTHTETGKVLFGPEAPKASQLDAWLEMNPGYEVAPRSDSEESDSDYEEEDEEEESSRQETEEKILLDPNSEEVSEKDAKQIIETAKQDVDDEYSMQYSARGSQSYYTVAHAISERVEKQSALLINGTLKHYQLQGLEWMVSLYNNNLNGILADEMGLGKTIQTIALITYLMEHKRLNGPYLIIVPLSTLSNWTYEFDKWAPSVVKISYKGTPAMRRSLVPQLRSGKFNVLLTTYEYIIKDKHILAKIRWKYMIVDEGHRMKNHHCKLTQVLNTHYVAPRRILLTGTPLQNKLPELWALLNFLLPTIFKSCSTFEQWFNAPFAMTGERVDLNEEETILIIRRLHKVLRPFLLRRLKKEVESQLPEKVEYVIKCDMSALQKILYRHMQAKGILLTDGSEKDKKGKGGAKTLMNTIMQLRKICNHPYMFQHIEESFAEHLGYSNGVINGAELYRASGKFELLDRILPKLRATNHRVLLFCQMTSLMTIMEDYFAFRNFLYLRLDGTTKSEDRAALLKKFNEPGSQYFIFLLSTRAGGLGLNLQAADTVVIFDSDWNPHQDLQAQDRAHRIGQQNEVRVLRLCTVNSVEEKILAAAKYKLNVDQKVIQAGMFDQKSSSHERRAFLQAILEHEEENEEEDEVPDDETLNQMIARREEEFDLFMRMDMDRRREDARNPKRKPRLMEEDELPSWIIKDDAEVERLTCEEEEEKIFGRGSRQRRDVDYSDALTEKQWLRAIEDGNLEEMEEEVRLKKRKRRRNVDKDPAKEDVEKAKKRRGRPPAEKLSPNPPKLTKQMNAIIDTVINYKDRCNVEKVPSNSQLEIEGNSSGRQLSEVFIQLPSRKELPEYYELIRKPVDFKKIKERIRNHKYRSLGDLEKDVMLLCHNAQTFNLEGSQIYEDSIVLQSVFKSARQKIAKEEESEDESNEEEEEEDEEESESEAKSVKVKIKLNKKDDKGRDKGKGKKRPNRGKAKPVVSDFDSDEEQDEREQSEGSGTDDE

| SMILES | DC50 [nM] | Dmax [%] |
| --- | --- | --- |
| CC(C)[C@@H](C(=O)N1C[C@H](O)C[C@H]1C(=O)N[C@@H](C)c1ccc(C#N)cc1)c1cc(N2CCC(CN3CCC(O[C@H]4C[C@H](Oc5cc(N6CC7CCC(C6)N7c6cc(-c7ccccc7O)nnc6N)ccn5)C4)CC3)CC2)no1 [Compound 15, (2S,4R)-N-[(1S)-1-(4-cyanophenyl)ethyl]-4-hydroxy-1-[(2R)-3-methyl-2-{3-[4-({4-[(1r,3r)-3-[(4-{8-[3-amino-6-(2-hydroxyphenyl)pyridazin-4-yl]-3,8-diazabicyclo[3.2.1]octan-3-yl}pyridin-2-yl)oxy]cyclobutoxy]piperidin-1-yl}methyl)piperidin-1-yl]-1,2-oxazol-5-yl}butanoyl]pyrrolidine-2-carboxamide] | 2.5 to 10 | > 75 |
| CC(C)[C@@H](C(=O)N1C[C@H](O)C[C@H]1C(=O)N[C@@H](C)c1ccc(C#N)cc1)c1cc(N2CCC(CN3CCC(O[C@H]4C[C@H](Oc5cc(N6C7CCCC6CN(c6cc(-c8ccccc8O)nnc6N)C7)ccn5)C4)CC3)CC2)no1 [Compound 16, (2S,4R)-N-[(1S)-1-(4-cyanophenyl)ethyl]-4-hydroxy-1-[(2R)-3-methyl-2-{3-[4-({4-[(1r,3r)-3-[(4-{3-[3-amino-6-(2-hydroxyphenyl)pyridazin-4-yl]-3,9-diazabicyclo[3.3.1]nonan-9-yl}pyridin-2-yl)oxy]cyclobutoxy]piperidin-1-yl}methyl)piperidin-1-yl]-1,2-oxazol-5-yl}butanoyl]pyrrolidine-2-carboxamide] | < 2.5 | > 75 |
| CC(C)[C@@H](C(=O)N1C[C@H](O)C[C@H]1C(=O)N[C@@H](C)c1ccc(C#N)cc1)c1cc(N2CCC(CN3CCC(O[C@H]4C[C@H](Oc5cc(N6C7CC6CN(c6cc(-c8ccccc8O)nnc6N)C7)ccn5)C4)CC3)CC2)no1 [Compound 17, (2S,4R)-N-[(1S)-1-(4-cyanophenyl)ethyl]-4-hydroxy-1-[(2R)-3-methyl-2-{3-[4-({4-[(1r,3r)-3-[(4-{3-[3-amino-6-(2-hydroxyphenyl)pyridazin-4-yl]-3,6-diazabicyclo[3.1.1]heptan-6-yl}pyridin-2-yl)oxy]cyclobutoxy]piperidin-1-yl}methyl)piperidin-1-yl]-1,2-oxazol-5-yl}butanoyl]pyrrolidine-2-carboxamide] | < 2.5 | > 75 |
| Cc1ncsc1-c1ccc([C@H](C)NC(=O)[C@@H]2C[C@@H](O)CN2C(=O)[C@H](c2cc(N3C4CCC3CC(CN3CCC(O[C@H]5C[C@H](Oc6cc(N7C8CCC7CN(c7cc(-c9ccccc9O)nnc7N)C8)ccn6)C5)CC3)C4)no2)C(C)C)cc1 (stereo partly drawn) [Compound 18, (2S,4R)-4-hydroxy-N-[(1S)-1-[4-(4-methyl-1,3-thiazol-5-yl)phenyl]ethyl]-1-[(2S)-3-methyl-2-{3-[3-({4-[(1r*,3r*)-3-[(4-{3-[3-amino-6-(2-hydroxyphenyl)pyridazin-4-yl]-3,8-diazabicyclo[3.2.1]octan-8-yl}pyridin-2-yl)oxy]cyclobutoxy]piperidin-1-yl}methyl)-8-azabicyclo[3.2.1]octan-8-yl]-1,2-oxazol-5-yl}butanoyl]pyrrolidine-2-carboxamide] | ≥ 30 | – |
| Cc1ncsc1-c1ccc([C@H](C)NC(=O)[C@@H]2C[C@@H](O)CN2C(=O)[C@@H](c2cc(N3CCC(CN4CCC(O)(C#C[C@H]5C[C@H](Oc6cc(N7C8CCC7CN(c7cc(-c9ccccc9O)nnc7N)C8)ccn6)C5)CC4)CC3)no2)C(C)C)cc1 [Compound 19, (2S,4R)-4-hydroxy-1-[(2R)-2-(3-{4-[(4-hydroxy-4-{2-[(1r,3r)-3-[(4-{3-[3-amino-6-(2-hydroxyphenyl)pyridazin-4-yl]-3,8-diazabicyclo[3.2.1]octan-8-yl}pyridin-2-yl)oxy]cyclobutyl]ethynyl}piperidin-1-yl)methyl]piperidin-1-yl}-1,2-oxazol-5-yl)-3-methylbutanoyl]-N-[(1S)-1-[4-(4-methyl-1,3-thiazol-5-yl)phenyl]ethyl]pyrrolidine-2-carboxamide] | < 2.5 | > 75 |
| Cc1ncsc1-c1ccc([C@H](C)NC(=O)[C@@H]2C[C@@H](O)CN2C(=O)[C@@H](c2cc(N3CCC(CN4CCC(O[C@H]5C[C@H](N6CCC(C#N)(CN7C8CCC7CN(c7cc(-c9ccccc9O)nnc7N)C8)CC6)C5)CC4)CC3)no2)C(C)C)cc1 [Compound 20, (2S,4R)-4-hydroxy-N-[(1S)-1-[4-(4-methyl-1,3-thiazol-5-yl)phenyl]ethyl]-1-[(2R)-3-methyl-2-{3-[4-({4-[(1r,3r)-3-[4-({3-[3-amino-6-(2-hydroxyphenyl)pyridazin-4-yl]-3,8-diazabicyclo[3.2.1]octan-8-yl}methyl)-4-cyanopiperidin-1-yl]cyclobutoxy]piperidin-1-yl}methyl)piperidin-1-yl]-1,2-oxazol-5-yl}butanoyl]pyrrolidine-2-carboxamide] | < 2.5 | > 75 |
| Cc1ncsc1-c1ccc([C@H](C)NC(=O)[C@@H]2C[C@@H](O)CN2C(=O)[C@@H](c2cc(N3C4CCC3CC(CN3CCC(O[C@H]5C[C@H](Oc6cc(N7C8CCC7CN(c7cc(-c9ccccc9O)nnc7N)C8)ccn6)C5)CC3)C4)no2)C(C)C)cc1 (stereo partly drawn) [Compound 21, (2S,4R)-4-hydroxy-N-[(1S)-1-[4-(4-methyl-1,3-thiazol-5-yl)phenyl]ethyl]-1-[(2R)-3-methyl-2-{3-[3-({4-[(1r,3r)-3-[(4-{3-[3-amino-6-(2-hydroxyphenyl)pyridazin-4-yl]-3,8-diazabicyclo[3.2.1]octan-8-yl}pyridin-2-yl)oxy]cyclobutoxy]piperidin-1-yl}methyl)-8-azabicyclo[3.2.1]octan-8-yl]-1,2-oxazol-5-yl}butanoyl]pyrrolidine-2-carboxamide] | < 2.5 | > 75 |
| Cc1ncsc1-c1ccc([C@H](C)NC(=O)[C@@H]2C[C@@H](O)CN2C(=O)[C@@H](c2cc(N3CCC(CN4CCC(O[C@H]5C[C@H](N6CCC(C(C)(C)N7C8CCC7CN(c7cc(-c9ccccc9O)nnc7N)C8)CC6)C5)CC4)CC3)no2)C(C)C)cc1 [Compound 22, (2S,4R)-4-hydroxy-N-[(1S)-1-[4-(4-methyl-1,3-thiazol-5-yl)phenyl]ethyl]-1-[(2R)-3-methyl-2-{3-[4-({4-[(1r,3r)-3-[4-(2-{3-[3-amino-6-(2-hydroxyphenyl)pyridazin-4-yl]-3,8-diazabicyclo[3.2.1]octan-8-yl}propan-2-yl)piperidin-1-yl]cyclobutoxy]piperidin-1-yl}methyl)piperidin-1-yl]-1,2-oxazol-5-yl}butanoyl]pyrrolidine-2-carboxamide] | < 2.5 | > 75 |
| Cc1ncsc1-c1ccc([C@H](C)NC(=O)[C@@H]2C[C@@H](O)CN2C(=O)[C@@H](c2cc(N3CCC(CN4CCC(O[C@H]5C[C@H](N6CCO[C@H](CN7C8CCC7CN(c7cc(-c9ccccc9O)nnc7N)C8)C6)C5)CC4)CC3)no2)C(C)C)cc1 [Compound 23, (2S,4R)-4-hydroxy-N-[(1S)-1-[4-(4-methyl-1,3-thiazol-5-yl)phenyl]ethyl]-1-[(2R)-3-methyl-2-{3-[4-({4-[(1r,3r)-3-[(2S)-2-({3-[3-amino-6-(2-hydroxyphenyl)pyridazin-4-yl]-3,8-diazabicyclo[3.2.1]octan-8-yl}methyl)morpholin-4-yl]cyclobutoxy]piperidin-1-yl}methyl)piperidin-1-yl]-1,2-oxazol-5-yl}butanoyl]pyrrolidine-2-carboxamide] | < 2.5 | > 75 |
